Test systems include A549; COLO 205; DU-145; HCT-116; MOLT-4; NCI-H460; NCI-H522; PC-3; RPMI-8226; SK-MEL-2; SK-MEL-5; SK-OV-3; SW-620; T47D; TK-10; U-251; UACC-257; NCI-H23; MDA-MB-435.
Experiment in all cases: NCI tumour cell line growth inhibition, 48 h

SMILES strings stand for the structures.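 1) Cells in 96-well plates. 2) Compound, 48 h, 5 concentrations. 3) Linear interpolation between surrounding doses. 4) Unreached endpoint = highest concentration. At the GI50, growth is halved.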 The source made the active and inactive calls. No stated cut-off is given here; in the data, active = GI50 up to about 1.1 µM and inactive = higher. Peptide text beside a SMILES is read from it. * marks the point of attachment. OSu = O=C1CCC(=O)N1O*

`Cc1c(C)c(C)c(CC2(C)CSC2)c(CC2(C)CSC2)c1C`: the GI50 in the experiment with A549, in the experiment with COLO 205, in the experiment on DU-145, in the experiment with HCT-116, with MOLT-4 and with NCI-H460 was > 100 µM (inactive) each time. The GI50 with NCI-H522, with PC-3, in the experiment on RPMI-8226, with SK-MEL-2, with SK-MEL-5 and in the experiment on SK-OV-3 was > 100 µM (inactive) throughout. For the same compound, the GI50 in the experiment with SW-620, in the experiment on T47D, with TK-10, with U-251 and with UACC-257 was > 100 µM (inactive) in each case.

Consider `C=CCOCCCCC(C(C)=O)C(=O)OC` (stereo not given), for which the GI50 in the experiment on A549, with COLO 205, with DU-145, in the experiment on HCT-116, in the experiment with MOLT-4 and in the experiment on NCI-H23 was > 100 µM (inactive) throughout. For the same compound, the GI50 in the experiment on NCI-H460, in the experiment on NCI-H522, in the experiment with RPMI-8226, in the experiment on SK-MEL-2, in the experiment on SK-MEL-5 and in the experiment on SK-OV-3 was > 100 µM (inactive) in each case. For the same compound, the GI50 in the experiment on SW-620, with TK-10, with U-251 and in the experiment with UACC-257 was > 100 µM (inactive) in each case.

Turning to `N=c1c2ccccc2nc2oc3ccccc3n12`, the GI50 was 33.8 µM (inactive) with A549; > 100 µM (inactive) with COLO 205; 36.6 µM (inactive) with HCT-116; > 100 µM (inactive) with MDA-MB-435; 35.2 µM (inactive) in the experiment on NCI-H23; > 10 µM (inactive) in the experiment with NCI-H460. The GI50 is 85.1 µM (inactive) in the experiment with PC-3; > 100 µM (inactive) with RPMI-8226; 37.5 µM (inactive) with SK-MEL-2; 15.5 µM (inactive) in the experiment on SK-MEL-5; 40.6 µM (inactive) in the experiment with SK-OV-3; 93.5 µM (inactive) with SW-620. Moreover, the GI50 in the experiment on TK-10 is 28.4 µM (inactive); with UACC-257, 68.1 µM (inactive).

Consider `CN(C)P(=O)(Oc1occc1C(O)Cc1ccccc1)N(C)C` (stereo not given), for which the GI50 in the experiment on A549, with COLO 205, in the experiment on HCT-116, with MDA-MB-435, in the experiment with NCI-H23 and in the experiment on NCI-H460 was > 100 µM (inactive) throughout. In addition, the GI50 with NCI-H522, in the experiment with PC-3, with RPMI-8226, with SK-MEL-2, in the experiment with SK-MEL-5 and with SK-OV-3 was > 100 µM (inactive) each time. Further, the GI50 in the experiment on SW-620, in the experiment with T47D, in the experiment on TK-10, with U-251 and with UACC-257 was > 100 µM (inactive) in each case.

In the case of `c1ccc(CCN2CCc3[nH]c4ccccc4c3C2)cc1`, the GI50 was 24.6 µM (inactive) in the experiment on A549; > 10 µM (inactive) in the experiment with COLO 205; > 100 µM (inactive) with DU-145; 14.5 µM (inactive) in the experiment with HCT-116; 17.4 µM (inactive) in the experiment on MDA-MB-435; 26.5 µM (inactive) in the experiment with MOLT-4. The GI50 in the experiment with NCI-H23 is 30.5 µM (inactive); in the experiment on NCI-H460, 13.7 µM (inactive); with RPMI-8226, > 10 µM (inactive); with SK-MEL-5, 16.5 µM (inactive); in the experiment with SK-OV-3, 35.8 µM (inactive); with SW-620, 16.1 µM (inactive). Moreover, the GI50 in the experiment with T47D was 20.1 µM (inactive); in the experiment with TK-10, 24.3 µM (inactive); in the experiment on U-251, 18 µM (inactive); in the experiment on UACC-257, 14.9 µM (inactive).

`CNc1ccc(C(=O)CC(O)CCC(C)C2OC(=O)CC(O)CC(=O)CC(O)CC(O)CC(O)CC(O)CC3(O)CC(O)C(C(=O)N4CCOCC4)C(CC(OC4OC(C)C(O)C(N)C4O)\C=C/C=C\C=C/C=C/C=C/C=C\C=C/C2C)O3)cc1` (stereo not given): the GI50 in the experiment on A549 is 0.275 µM (active); with COLO 205, 0.416 µM (active); with DU-145, 0.527 µM (active); in the experiment with HCT-116 it was 0.504 µM (active); in the experiment on MDA-MB-435, 0.281 µM (active); in the experiment with MOLT-4, 0.399 µM (active). In addition, the GI50 in the experiment on NCI-H23 was 0.329 µM (active); in the experiment with NCI-H460, 0.27 µM (active); in the experiment with NCI-H522, 0.244 µM (active); in the experiment with PC-3, 0.355 µM (active); in the experiment on RPMI-8226, 0.259 µM (active); with SK-MEL-2, 0.421 µM (active). The GI50 with SK-MEL-5 is 0.181 µM (active); in the experiment on SK-OV-3, 0.418 µM (active); with SW-620 it was 0.475 µM (active); in the experiment with TK-10, 0.247 µM (active); in the experiment on U-251, 0.243 µM (active); in the experiment on UACC-257, 0.185 µM (active).

Turning to `Cc1ccc(C2=C(c3ccccc3)C(O)(c3ccccc3)C(c3ccccc3)=C2c2ccc(C)cc2)cc1`, the GI50 in the experiment with A549 was > 100 µM (inactive); with HCT-116, 29.9 µM (inactive); in the experiment on MOLT-4 it was 7.93 µM (inactive); in the experiment with NCI-H23 it was 69.3 µM (inactive); in the experiment with NCI-H460, > 100 µM (inactive); with NCI-H522, > 100 µM (inactive). Also, the GI50 with RPMI-8226 was 35.7 µM (inactive); in the experiment with SK-MEL-2 it was 6.17 µM (inactive); with SK-MEL-5 it was > 100 µM (inactive); in the experiment with SK-OV-3, > 100 µM (inactive); in the experiment on SW-620, > 100 µM (inactive); with TK-10 it was 77.4 µM (inactive). In addition, the GI50 was 31.5 µM (inactive) in the experiment on U-251 and > 100 µM (inactive) with UACC-257.

As to `COc1cc(C23OCC(Cc4cc5c(cc42)OCO5)C3CO)cc(OC)c1OC` (stereo not given), the GI50 is 3.48 µM (inactive) with A549; 2.55 µM (inactive) with COLO 205; 2.64 µM (inactive) in the experiment with DU-145; 2.89 µM (inactive) with HCT-116; 0.119 µM (active) in the experiment on MDA-MB-435; 13.2 µM (inactive) in the experiment with MOLT-4. The GI50 with NCI-H23 is 3.45 µM (inactive); in the experiment with NCI-H460 it was 3.23 µM (inactive); in the experiment with NCI-H522, 2.22 µM (inactive); in the experiment with PC-3, 1.85 µM (inactive); with SK-MEL-2, 3.24 µM (inactive); in the experiment on SK-MEL-5, 6.7 µM (inactive). Further, the GI50 with SK-OV-3 is 3.19 µM (inactive); with SW-620, 3.11 µM (inactive); in the experiment with TK-10, > 24.4 µM (inactive); with U-251 it was 2.94 µM (inactive); in the experiment on UACC-257 it was > 100 µM (inactive).

Take `O=C(O)COc1ccc(C(=O)/C(SS/C(C(=O)c2ccc(OCC(=O)O)c(Cl)c2Cl)=C2\C=C(c3ccc(Cl)cc3)SS2)=C2/C=C(c3ccc(Cl)cc3)SS2)c(Cl)c1Cl`: the GI50 was 21.4 µM (inactive) in the experiment with A549; 0.339 µM (active) in the experiment with COLO 205; 9.08 µM (inactive) with HCT-116; 3.58 µM (inactive) in the experiment with MOLT-4; 9.23 µM (inactive) in the experiment on NCI-H23; 19.1 µM (inactive) in the experiment on NCI-H460. For the same compound, the GI50 was 2.18 µM (inactive) in the experiment with NCI-H522; 22.3 µM (inactive) in the experiment with RPMI-8226; 14.1 µM (inactive) with SK-MEL-2; 16.7 µM (inactive) in the experiment on SK-MEL-5; 56.1 µM (inactive) with SK-OV-3; 0.435 µM (active) in the experiment with SW-620. The GI50 with TK-10 is 24.7 µM (inactive); with U-251, 4.2 µM (inactive); with UACC-257, 78.2 µM (inactive).

As to `CN(/N=C/C=N/N(C)C1=NCCCN1)C1=NCCCN1`, the GI50 in the experiment with A549, in the experiment on COLO 205, in the experiment on HCT-116, with MDA-MB-435, with MOLT-4 and with NCI-H23 was > 100 µM (inactive) each time. Moreover, the GI50 with NCI-H460, with NCI-H522, in the experiment on PC-3, in the experiment with SK-MEL-5, with SK-OV-3 and in the experiment on SW-620 was > 100 µM (inactive) each time. Besides, the GI50 in the experiment with TK-10, with U-251 and in the experiment with UACC-257 was > 100 µM (inactive) each time.

Consider `C[n+]1c(-c2ccc(/C=N\Nc3ccnc(N/N=C/c4ccc(-c5cn6ccsc6[n+]5C)cc4)n3)cc2)cn2ccsc21`, for which the GI50 in the experiment on A549 is 31.3 µM (inactive); in the experiment with COLO 205, 27.6 µM (inactive); in the experiment on DU-145 it was 27.8 µM (inactive); in the experiment on MDA-MB-435 it was 2.24 µM (inactive); with MOLT-4 it was 24.2 µM (inactive); in the experiment with NCI-H23, 11.5 µM (inactive). Besides, the GI50 in the experiment on NCI-H460 was 23 µM (inactive); in the experiment on NCI-H522, > 100 µM (inactive); in the experiment with PC-3 it was 48.3 µM (inactive); in the experiment on RPMI-8226, 4.65 µM (inactive); in the experiment with SK-MEL-5, 10.6 µM (inactive); in the experiment on SK-OV-3, > 100 µM (inactive). Moreover, the GI50 in the experiment with SW-620 is 32.7 µM (inactive); in the experiment with TK-10 it was 20.3 µM (inactive); in the experiment with U-251, 32.6 µM (inactive); in the experiment with UACC-257 it was 17.7 µM (inactive).

Regarding `NCCCCC(NC(=O)C(N)Cc1ccc(O)cc1)C(=O)NC(Cc1ccc(O)cc1)C(=O)NC(CCCCN)C(=O)ON1C(=O)CCC1=O` (stereo not given) (H-YKYK-OSu; configuration not given here), the GI50 in the experiment with A549, with COLO 205, in the experiment with HCT-116, in the experiment with MOLT-4, with NCI-H23 and with NCI-H460 was > 100 µM (inactive) throughout. In addition, the GI50 with PC-3, with RPMI-8226, with SK-MEL-2, in the experiment with SK-MEL-5, with SW-620 and in the experiment on T47D was > 100 µM (inactive) in each case. Besides, the GI50 in the experiment on TK-10, in the experiment on U-251 and in the experiment on UACC-257 was > 100 µM (inactive) throughout.
